Test results reported in patent US6846921B2, “Chimeric antisense oligonucleotides and cell transfecting formulations thereof” (Chiron Corporation, priority 1999, dated 2005).
{5'-OMe-dT} = O-methyl thymidine blocking nucleotide (W), phosphodiester-linked; {3'-3'N} = to-3' linked nucleotide blocking group (Z), phosphodiester-linked; d = 2'-deoxy (DNA); m = 2'-O-methyl

Assays:
mTyr mRNA = mTyr mRNA knockout after transfection into B16 melanoma cells; type: cell-based; settings: approximate level
Protocol: (§1) With the exception of the mTyr oligo (SEQ ID NO: 17-18), which was transfected into B16 melanoma cells, all oligos shown in Table 1 were transfected into HT1080 cells, using “Lipitoid 1” (see below) for transfection, and incubated for 24 hours. The table gives the approximate level of mRNA knockout observed in each case.
(§2) For each transfection mixture, a carrier molecule, preferably a lipitoid or cholesteroid, was prepared to a working concentration of 0.5 mM in water, sonicated to yield a uniform solution, and filtered through a 0.45 μm PVDF membrane. The antisense oligonucleotide was prepared to a working concentration of 100 μM in sterile Millipore water. […]
(§3) The level of target mRNA was quantitated using the Roche LightCycler™ real-time PCR machine. […]
(§4) An amplification mixture was prepared by mixing in the following order: 1×PCR buffer II, 3 mM MgCl2, 140 μM each dNTP, 0.175 pmol each oligo, 1:50,000 dil of SYBR® Green, 0.25 mg/ml BSA, 1 unit Taq polymerase, and H2O to 20 μl. (PCR buffer II is available in 10×concentration from Perkin-Elmer (Norwalk, Conn.). In 1×concentration it contains 10 mM Tris pH 8.3 and 50 mM KCl. SYBR® Green (Molecular Probes, Eugene, Oreg.) is a dye which fluoresces when bound to double stranded DNA. As double stranded PCR product is produced during amplification, the fluorescence from SYBR® Green increases.) […]

UPAR mRNA = UPAR mRNA knockout after transfection of chimeric antisense oligonucleotide; type: cell-based, human; settings: HT1080 cells, Lipitoid 1 for transfection, incubated 24 hours, approximate level
Protocol: as §1, §2, §3, §4

PDK1 mRNA = PDK1 mRNA knockout after transfection of chimeric antisense oligonucleotide; type: cell-based, human; settings: HT1080 cells, Lipitoid 1 for transfection, incubated 24 hours, approximate level
Protocol: as §1, §2, §3, §4

AKT2 mRNA = AKT2 mRNA knockout after transfection of chimeric antisense oligonucleotide; type: cell-based, human; settings: HT1080 cells, Lipitoid 1 for transfection, incubated 24 hours, approximate level
Protocol: as §1, §2, §3, §4

p110α mRNA = p110α mRNA knockout after transfection of chimeric antisense oligonucleotide; type: cell-based, human; settings: HT1080 cells, Lipitoid 1 for transfection, incubated 24 hours, approximate level
Protocol: as §1, §2, §3, §4

MMP9 mRNA = MMP9 mRNA knockout after transfection of chimeric antisense oligonucleotide; type: cell-based, human; settings: HT1080 cells, Lipitoid 1 for transfection, incubated 24 hours, approximate level
Protocol: as §1, §2, §3, §4

MMP2 mRNA = MMP2 mRNA knockout after transfection of chimeric antisense oligonucleotide; type: cell-based, human; settings: HT1080 cells, Lipitoid 1 for transfection, incubated 24 hours, approximate level
Protocol: as §1, §2, §3, §4

p110β mRNA = p110β mRNA knockout after transfection of chimeric antisense oligonucleotide; type: cell-based, human; settings: HT1080 cells, Lipitoid 1 for transfection, incubated 24 hours, approximate level
Protocol: as §1, §2, §3, §4

CHK2 mRNA = CHK2 mRNA knockout after transfection of chimeric antisense oligonucleotide; type: cell-based, human; settings: HT1080 cells, Lipitoid 1 for transfection, incubated 24 hours, approximate level
Protocol: as §1, §2, §3, §4

## 17 (AACCCATGAAGTTGCCTGAGCACTG; antisense; sugars from the 5' end m7 d11 m7, 5' {5'-OMe-dT}, 3' {3'-3'N}, backbone and T or U not given here; 2'-OMe blocks are phosphodiester, DNA gap is phosphorothioate) [compound 17]
mTyr mRNA
  mRNA knockout: >90%

## 24 (GGCAGTCATTAGCAGGGTGATGGTG; antisense; sugars from the 5' end m7 d11 m7, 5' {5'-OMe-dT}, 3' {3'-3'N}, backbone and T or U not given here; 2'-OMe blocks are phosphodiester, DNA gap is phosphorothioate) [compound 24]
UPAR mRNA
  mRNA knockout: >80%

## 23 (CTGTGAGCAACAGCTGTCGTCGTCT; antisense; sugars from the 5' end m7 d11 m7, 5' {5'-OMe-dT}, 3' {3'-3'N}, backbone and T or U not given here; 2'-OMe blocks are phosphodiester, DNA gap is phosphorothioate) [compound 23]
PDK1 mRNA
  mRNA knockout: >90%

## 2 (GTTCCCTTGCCAAGGAGTTTGAGAT; antisense; sugars from the 5' end m7 d11 m7, 5' {5'-OMe-dT}, 3' {3'-3'N}, backbone and T or U not given here; 2'-OMe blocks are phosphodiester, DNA gap is phosphorothioate) [compound 2]
AKT2 mRNA
  mRNA knockout: >85%

## 19 (ATCTGGTCGCCTCATTTGCTCAACT; antisense; sugars from the 5' end m7 d11 m7, 5' {5'-OMe-dT}, 3' {3'-3'N}, backbone and T or U not given here; 2'-OMe blocks are phosphodiester, DNA gap is phosphorothioate) [compound 19]
p110α mRNA
  mRNA knockout: >95%

## 16 (GCTTTCTCTCGGTACTGGAAGACGT; antisense; sugars from the 5' end m7 d11 m7, 5' {5'-OMe-dT}, 3' {3'-3'N}, backbone and T or U not given here; 2'-OMe blocks are phosphodiester, DNA gap is phosphorothioate) [compound 16]
MMP9 mRNA
  mRNA knockout: >80%

## 14 (GAAGCCCCACTTGCGGTCGTCAT; sugars from the 5' end m7 d9 m7, 5' {5'-OMe-dT}, 3' {3'-3'N}, backbone and T or U not given here; 2'-OMe blocks are phosphodiester, DNA gap is phosphorothioate) [compound 14]
MMP2 mRNA
  mRNA knockout: >80%

## 21 (TGATGAAGAGATTCCCATGCCGTCG; antisense; sugars from the 5' end m7 d11 m7, 5' {5'-OMe-dT}, 3' {3'-3'N}, backbone and T or U not given here; 2'-OMe blocks are phosphodiester, DNA gap is phosphorothioate) [compound 21]
p110β mRNA
  mRNA knockout: >90%

## 4 (GACCCACTTCCCTGAAAATCCGAAA; antisense; sugars from the 5' end m7 d11 m7, 5' {5'-OMe-dT}, 3' {3'-3'N}, backbone and T or U not given here; 2'-OMe blocks are phosphodiester, DNA gap is phosphorothioate) [compound 4]
CHK2 mRNA
  mRNA knockout: >90%
